# Results as given in PubChem BioAssay (NCI).
#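 The compound was tested at five concentrations on cells cultured in 96-well plates, with a 48-hour exposure period. At the TGI there is no net growth.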
# Experiments:
# Test in all cases: NCI anticancer screen, dose series, 48 h
# [1] = tested on: CCRF-CEM leukemia
# [2] = tested on: NCI-H460 lung
# [3] = tested on: SF-539 CNS
# [4] = tested on: U251 CNS
# [5] = tested on: OVCAR-4 ovarian
# [6] = tested on: SW-620 colon
# [7] = tested on: SK-MEL-2 melanoma
# [8] = tested on: NCI-H23 lung
# [9] = tested on: NCI-H226 lung
# [10] = tested on: MDA-MB-231 breast
# [11] = tested on: HCT-116 colon
# [12] = tested on: A549 NSCLC
# [13] = tested on: HCT-15 colon
# [14] = tested on: RXF 393 renal
# [15] = tested on: NCI/ADR-RES ovarian
# [16] = tested on: SK-MEL-28 melanoma
# [17] = tested on: T-47D breast
# [18] = tested on: HOP-92 NSCLC
# [19] = tested on: PC-3 prostate
# [20] = tested on: UACC-257 melanoma
# [21] = tested on: RPMI-8226 leukemia
# [22] = tested on: EKVX NSCLC
# [23] = tested on: M14 melanoma
# [24] = tested on: 786-0 renal
# [25] = tested on: SF-295 CNS
# [26] = tested on: SF-268 CNS
# [27] = tested on: OVCAR-5 ovarian
# [28] = tested on: MALME-3M melanoma
# [29] = tested on: HOP-62 NSCLC
# [30] = tested on: MDA-MB-435
# [31] = tested on: OVCAR-8 ovarian
# [32] = tested on: UACC-62 melanoma
# [33] = tested on: CAKI-1 renal
# [34] = tested on: DU-145 prostate
# [35] = tested on: HL-60(TB) leukemia
# [36] = tested on: SNB-75 CNS
# [37] = tested on: ACHN renal
# [38] = tested on: COLO 205 colon
# [39] = tested on: SK-MEL-5 melanoma
# [40] = tested on: MDA-N
# [41] = tested on: NCI-H522 lung
# [42] = tested on: MCF7 breast
# [43] = tested on: UO-31 renal
# [44] = tested on: K-562 leukemia
# [45] = tested on: LOX IMVI melanoma
# [46] = tested on: SK-OV-3 ovarian
# [47] = tested on: SN12C renal
# [48] = tested on: SR leukemia
# [49] = tested on: KM12 colon
# [50] = tested on: HS 578T breast
# [51] = tested on: HCC-2998 colon
# [52] = tested on: BT-549 breast
# [53] = tested on: MOLT-4 leukemia
# [54] = tested on: SNB-19 CNS
# [55] = tested on: IGROV1 ovarian
# [56] = tested on: TK-10 renal
# [57] = tested on: HT29 colon
# [58] = tested on: OVCAR-3 ovarian
structure (smiles),measurement,setting,value
O=C1C(=Cc2cccc(Cl)c2)N=C(c2ccccc2)N1n1c(-c2ccccc2)nc2ccccc2c1=O,TGI,[1],> 100 µM
same,TGI,[2],> 100 µM
same,TGI,[3],> 100 µM
same,TGI,[4],> 100 µM
same,TGI,[5],> 100 µM
same,TGI,[6],> 100 µM
same,TGI,[7],> 100 µM
same,TGI,[8],68.6 µM
same,TGI,[9],> 100 µM
same,TGI,[10],> 100 µM
same,TGI,[11],> 100 µM
same,TGI,[12],> 100 µM
same,TGI,[13],> 100 µM
same,TGI,[14],> 100 µM
same,TGI,[15],> 100 µM
same,TGI,[16],> 100 µM
same,TGI,[17],> 100 µM
same,TGI,[18],81.4 µM
same,TGI,[19],> 100 µM
same,TGI,[20],> 100 µM
same,TGI,[21],> 100 µM
same,TGI,[22],> 100 µM
same,TGI,[23],54.5 µM
same,TGI,[24],> 100 µM
same,TGI,[25],> 100 µM
same,TGI,[26],> 100 µM
same,TGI,[27],> 100 µM
same,TGI,[28],> 100 µM
same,TGI,[29],99.8 µM
same,TGI,[30],> 100 µM
same,TGI,[31],> 100 µM
same,TGI,[32],96.2 µM
same,TGI,[33],> 100 µM
same,TGI,[34],> 100 µM
same,TGI,[35],> 100 µM
same,TGI,[36],> 100 µM
same,TGI,[37],> 100 µM
same,TGI,[38],> 100 µM
same,TGI,[39],> 100 µM
same,TGI,[40],> 100 µM
same,TGI,[41],51.7 µM
same,TGI,[42],> 100 µM
same,TGI,[43],> 100 µM
same,TGI,[44],> 100 µM
same,TGI,[45],> 100 µM
same,TGI,[46],> 100 µM
same,TGI,[47],> 100 µM
same,TGI,[48],> 100 µM
same,TGI,[49],> 100 µM
same,TGI,[50],> 100 µM
same,TGI,[51],> 100 µM
same,TGI,[52],> 100 µM
same,TGI,[53],> 100 µM
same,TGI,[54],> 100 µM
same,TGI,[55],> 100 µM
same,TGI,[56],> 100 µM
same,TGI,[57],> 100 µM
same,TGI,[58],> 100 µM
